Test results: ChEMBL document CHEMBL1140819, “Protected aminooxyprolines for expedited library synthesis: application to Tsg101-directed proline-oxime containing peptides” (Bioorg Med Chem Lett, 2008)
*1 amine or outer side, *2 acyl side, *3 side chain or, on linkers, in order; H or OH if unused. Where a SMILES comes first, the peptide text is derived from it. [ ]: non-standard residue; d: D form. The star is where a group is joined. ξ: configuration not given here. Fluorescein(5-NHCS) = O=C1OC2(c3ccc(O)cc3Oc3cc(O)ccc32)c2cc(NC(=S)*)ccc21; X10 = O=C([C@@H]1C[C@H](O/N=C\c2c(F)c(F)c(F)c(F)c2F)CN1[*:1])[*:2]; X7 = O=C([C@@H]1[C@@H](O/N=C\c2c(F)c(F)c(F)c(F)c2F)CCN1[*:1])[*:2]; X9 = O=C([C@@H]1C[C@H](O/N=C\c2ccc([N+](=O)[O-])cc2)CN1[*:1])[*:2]; X5 = CC(/C=N\O[C@@H]1C[C@@H](C(=O)[*:2])N([*:1])C1)=C\c1ccccc1; X16 = COc1ccc(/C=N\O[C@H]2CCN([*:1])[C@@H]2C(=O)[*:2])cc1O; X14 = CCCCCCCC/C=N\O[C@@H]1C[C@@H](C(=O)[*:2])N([*:1])C1; X4 = O=C([C@@H]1[C@@H](O/N=C\c2ccncc2)CCN1[*:1])[*:2]; X6 = O=C([C@@H]1C[C@@H](O/N=C\c2ccoc2)CN1[*:1])[*:2]; X2 = CCCCC/C=N\O[C@H]1C[C@@H](C(=O)[*:2])N([*:1])C1; X3 = CCCCC/C=N\O[C@H]1CCN([*:1])[C@@H]1C(=O)[*:2]; ξPip = O=C(O)C1CCCCN1; Ava = NCCCCC(=O)O

Target: T1, Tumor susceptibility gene 101 protein (Homo sapiens, UniProt Q99816)
T1 sequence (Q99816 whole entry): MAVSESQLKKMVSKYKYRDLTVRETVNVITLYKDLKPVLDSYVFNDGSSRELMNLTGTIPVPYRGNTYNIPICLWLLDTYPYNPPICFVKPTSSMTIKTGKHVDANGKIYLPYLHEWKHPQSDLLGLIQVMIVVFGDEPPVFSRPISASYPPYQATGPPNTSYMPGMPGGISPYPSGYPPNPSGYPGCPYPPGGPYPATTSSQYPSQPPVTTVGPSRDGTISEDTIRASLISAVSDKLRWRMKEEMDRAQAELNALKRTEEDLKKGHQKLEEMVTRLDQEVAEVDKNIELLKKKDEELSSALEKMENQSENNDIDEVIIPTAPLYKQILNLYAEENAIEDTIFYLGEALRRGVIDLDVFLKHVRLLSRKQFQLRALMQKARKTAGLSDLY
Test: Binding affinity to Tsg101

`CCCCC/C=N\O[C@H]1C[C@@H](C(=O)N[C@@H](CCC(=O)O)C(=O)N[C@@H](CCC(=O)O)C(N)=O)N(C(=O)C2CCCCN2C(=O)[C@H](C)NC(=O)[C@@H](NC(=O)[C@@H]2CCCN2C(=O)[C@H](CCC(=O)O)NC(=O)[C@@H]2CCCN2C(=O)CCCCNC(=S)Nc2ccc3c(c2)C2(OC3=O)c3ccc(O)cc3Oc3cc(O)ccc32)[C@@H](C)O)C1` (stereo not given in full) ({Fluorescein(5-NHCS)-Ava}-PEPTA[ξPip][X2]EE-NH2) and `CCCCCCCC/C=N\O[C@@H]1C[C@@H](C(=O)N[C@@H](CCC(=O)O)C(=O)N[C@@H](CCC(=O)O)C(N)=O)N(C(=O)C2CCCCN2C(=O)[C@H](C)NC(=O)[C@@H](NC(=O)[C@@H]2CCCN2C(=O)[C@H](CCC(=O)O)NC(=O)[C@@H]2CCCN2C(=O)CCCCNC(=S)Nc2ccc3c(c2)C2(OC3=O)c3ccc(O)cc3Oc3cc(O)ccc32)[C@@H](C)O)C1` (stereo not given in full) ({Fluorescein(5-NHCS)-Ava}-PEPTA[ξPip][X14]EE-NH2) are within 1.5-fold of each other in IC50: 42 µM for the first, 54 µM for the second.

`CCCCC/C=N\O[C@H]1CCN(C(=O)C2CCCCN2C(=O)[C@H](C)NC(=O)[C@@H](NC(=O)[C@@H]2CCCN2C(=O)[C@H](CCC(=O)O)NC(=O)[C@@H]2CCCN2C(=O)CCCCNC(=S)Nc2ccc3c(c2)C2(OC3=O)c3ccc(O)cc3Oc3cc(O)ccc32)[C@@H](C)O)[C@@H]1C(=O)N[C@@H](CCC(=O)O)C(=O)N[C@@H](CCC(=O)O)C(N)=O` (stereo not given in full) ({Fluorescein(5-NHCS)-Ava}-PEPTA[ξPip][X3]EE-NH2) and `C[C@H](NC(=O)[C@@H](NC(=O)[C@@H]1CCCN1C(=O)[C@H](CCC(=O)O)NC(=O)[C@@H]1CCCN1C(=O)CCCCNC(=S)Nc1ccc2c(c1)C1(OC2=O)c2ccc(O)cc2Oc2cc(O)ccc21)[C@@H](C)O)C(=O)N1CCCCC1C(=O)N1CC[C@H](O/N=C\c2ccncc2)[C@H]1C(=O)N[C@@H](CCC(=O)O)C(=O)N[C@@H](CCC(=O)O)C(N)=O` (stereo not given in full) ({Fluorescein(5-NHCS)-Ava}-PEPTA[ξPip][X4]EE-NH2) are within 1.5-fold of each other in IC50: 23 µM for the first, 22 µM for the second.

Going from `CC(/C=N\O[C@@H]1C[C@@H](C(=O)N[C@@H](CCC(=O)O)C(=O)N[C@@H](CCC(=O)O)C(N)=O)N(C(=O)C2CCCCN2C(=O)[C@H](C)NC(=O)[C@@H](NC(=O)[C@@H]2CCCN2C(=O)[C@H](CCC(=O)O)NC(=O)[C@@H]2CCCN2C(=O)CCCCNC(=S)Nc2ccc3c(c2)C2(OC3=O)c3ccc(O)cc3Oc3cc(O)ccc32)[C@@H](C)O)C1)=C\c1ccccc1` (stereo not given in full) ({Fluorescein(5-NHCS)-Ava}-PEPTA[ξPip][X5]EE-NH2) to `C[C@H](NC(=O)[C@@H](NC(=O)[C@@H]1CCCN1C(=O)[C@H](CCC(=O)O)NC(=O)[C@@H]1CCCN1C(=O)CCCCNC(=S)Nc1ccc2c(c1)C1(OC2=O)c2ccc(O)cc2Oc2cc(O)ccc21)[C@@H](C)O)C(=O)N1CCCCC1C(=O)N1C[C@H](O/N=C\c2ccoc2)C[C@H]1C(=O)N[C@@H](CCC(=O)O)C(=O)N[C@@H](CCC(=O)O)C(N)=O` (stereo not given in full) ({Fluorescein(5-NHCS)-Ava}-PEPTA[ξPip][X6]EE-NH2), the IC50 rises from 13 µM to 30 µM (2.3-fold). The first is the more potent here.

Compared with `C[C@H](NC(=O)[C@@H](NC(=O)[C@@H]1CCCN1C(=O)[C@H](CCC(=O)O)NC(=O)[C@@H]1CCCN1C(=O)CCCCNC(=S)Nc1ccc2c(c1)C1(OC2=O)c2ccc(O)cc2Oc2cc(O)ccc21)[C@@H](C)O)C(=O)N1CCCCC1C(=O)N1CC[C@H](O/N=C\c2c(F)c(F)c(F)c(F)c2F)[C@H]1C(=O)N[C@@H](CCC(=O)O)C(=O)N[C@@H](CCC(=O)O)C(N)=O` (stereo not given in full) ({Fluorescein(5-NHCS)-Ava}-PEPTA[ξPip][X7]EE-NH2), `C[C@H](NC(=O)[C@@H](NC(=O)[C@@H]1CCCN1C(=O)[C@H](CCC(=O)O)NC(=O)[C@@H]1CCCN1C(=O)CCCCNC(=S)Nc1ccc2c(c1)C1(OC2=O)c2ccc(O)cc2Oc2cc(O)ccc21)[C@@H](C)O)C(=O)N1CCCCC1C(=O)N1C[C@@H](O/N=C\c2c(F)c(F)c(F)c(F)c2F)C[C@H]1C(=O)N[C@@H](CCC(=O)O)C(=O)N[C@@H](CCC(=O)O)C(N)=O` (stereo not given in full) ({Fluorescein(5-NHCS)-Ava}-PEPTA[ξPip][X10]EE-NH2) is 7.3-fold higher in IC50: 19 µM for the first, 139 µM for the second.

First: C[C@H](NC(=O)[C@@H](NC(=O)[C@@H]1CCCN1C(=O)[C@H](CCC(=O)O)NC(=O)[C@@H]1CCCN1C(=O)CCCCNC(=S)Nc1ccc2c(c1)C1(OC2=O)c2ccc(O)cc2Oc2cc(O)ccc21)[C@@H](C)O)C(=O)N1CCCCC1C(=O)N1C[C@@H](O/N=C\c2ccc([N+](=O)[O-])cc2)C[C@H]1C(=O)N[C@@H](CCC(=O)O)C(=O)N[C@@H](CCC(=O)O)C(N)=O (stereo not given in full) ({Fluorescein(5-NHCS)-Ava}-PEPTA[ξPip][X9]EE-NH2)
Second: COc1ccc(/C=N\O[C@H]2CCN(C(=O)C3CCCCN3C(=O)[C@H](C)NC(=O)[C@@H](NC(=O)[C@@H]3CCCN3C(=O)[C@H](CCC(=O)O)NC(=O)[C@@H]3CCCN3C(=O)CCCCNC(=S)Nc3ccc4c(c3)C3(OC4=O)c4ccc(O)cc4Oc4cc(O)ccc43)[C@@H](C)O)[C@@H]2C(=O)N[C@@H](CCC(=O)O)C(=O)N[C@@H](CCC(=O)O)C(N)=O)cc1O (stereo not given in full) ({Fluorescein(5-NHCS)-Ava}-PEPTA[ξPip][X16]EE-NH2)
The IC50 of the first is 7-fold higher: 91 µM for the first, 13 µM for the second.
